From US9586949B2, “Aza-heteroaryl compounds as PI3K-gamma inhibitors” (Incyte Corporation, priority 2015, dated 2017) come the findings set out here.

Each structure is given as a SMILES string. Some results are limits rather than exact numbers.

Assay [1] concerns the target PI3Kγ (p110γ) Recombinant Human Protein (Homo sapiens (Human), UniProt P48736). In words: PI3K-γ Scintillation Proximity Assay. Type of assay: biochemical. The settings on record: 20 μM PIP2, 2 μM ATP, 13 nM PI3Kγ, 120 min; read-out: PI3K-gamma SPA IC50. On the procedure: [γ-^33P]ATP (10 mCi/mL) and Wheat Germ Agglutinin (WGA) YSi SPA Scintillation Beads was purchased from Perkin-Elmer (Waltham, Mass.). […] PI3Kγ (p110γ) Recombinant Human Protein was purchased from Life technology (Grand Island, N.Y.). ATP, MgCl2, DTT, EDTA, MOPS and CHAPS were purchased from Sigma-Aldrich (St. Louis, Mo.).
The kinase reaction was conducted in polystyrene 384-well Greiner Bio-one white plate from Thermo Fisher Scientific in a final volume of 25 μL. Inhibitors were first diluted serially in DMSO and added to the plate wells before the addition of other reaction components. The final concentration of DMSO in the assay was 2%. The PI3Kγ assay was carried out at room temperature in 20 mM MOPS, pH 6.7, 10 mM MgCl2, 5 mM DTT and CHAPS 0.03%. Reactions were initiated by the addition of ATP, the final reaction mixture consisted of 20 μM PIP2, 2 μM ATP, 0.5 μCi [γ-^33P] […] The final concentration of SPA beads is 1.0 mg/mL. After the plate sealing, plates were shaken overnight at room temperature and centrifuged at 1500 rpm for 10 min, the radioactivity of the product was determined by scintillation counting on Topcount (Perkin-Elmer). IC50 determination was performed by fitting the curve of percent of the solvent control activity versus the log of the inhibitor concentration using the GraphPad Prism 6.0 software.

Assay [2] has as its target PI3Kδ (p110δ/p85α) Recombinant Human Protein (Homo sapiens (Human), UniProt O00329). The assay is described as follows: PI3Kδ Scintillation Proximity Assay. Type of assay: biochemical. To be noted: 20 μM PIP2, 2 μM ATP, 3.4 nM PI3Kδ, 120 min; read-out: PI3K-delta SPA IC50. The text has this:
[γ-^33P]ATP (10 mCi/mL) and Wheat Germ Agglutinin (WGA) YSi SPA Scintillation Beads was purchased from Perkin-Elmer (Waltham, Mass.). Lipid kinase substrate, D-myo-Phosphatidylinositol 4,5-bisphosphate (PtdIns(4,5)P2)D (+)-sn-1,2-di-O-octanoylglyceryl, 3-O-phospho linked (PIP2), CAS 204858-53-7, was purchased from Echelon Biosciences (Salt Lake City, Utah). PI3Kδ (p110δ/p85α) Recombinant Human Protein was purchased from Eurofins (St Charles, Mo.). ATP, MgCl2, DTT, EDTA, MOPS and CHAPS were purchased from Sigma-Aldrich (St. Louis, Mo.).
The kinase reaction was conducted in polystyrene 384-well Greiner Bio-one white plate from Thermo Fisher Scientific in a final volume of 25 μL. Inhibitors were first diluted serially in DMSO and added to the plate wells before the addition of other reaction components. The final concentration of DMSO in the assay was 2%. The PI3Kδ assay was carried out at room temperature in 20 mM MOPS, pH 6.7, 10 mM MgCl2, 5 mM DTT and CHAPS 0.03%. Reactions were initiated by the addition of ATP, the final reaction mixture consisted of 20 μM PIP2, 2 μM ATP, 0.5 μCi [γ-^33P] ATP, 3.4 nM PI3Kδ. Reactions were incubated for 120 min and terminated by the addition of 40 μL SPA beads suspended in quench buffer: 163 mM potassium phosphate pH 7.8, 20% glycerol, 25 mM EDTA. The final concentration of SPA beads is 1.0 mg/mL. After the plate sealing, plates were shaken overnight at room temperature and centrifuged at 1500 rpm for 10 min, the radioactivity of the product was determined by scintillation counting on Topcount (Perkin-Elmer). IC50 determination was performed by fitting the curve of percent of the solvent control activity versus the log of the inhibitor concentration using the GraphPad Prism 6.0 software.

PI3Kγ (p110γ) Recombinant Human Protein, sequence (P48736 whole entry): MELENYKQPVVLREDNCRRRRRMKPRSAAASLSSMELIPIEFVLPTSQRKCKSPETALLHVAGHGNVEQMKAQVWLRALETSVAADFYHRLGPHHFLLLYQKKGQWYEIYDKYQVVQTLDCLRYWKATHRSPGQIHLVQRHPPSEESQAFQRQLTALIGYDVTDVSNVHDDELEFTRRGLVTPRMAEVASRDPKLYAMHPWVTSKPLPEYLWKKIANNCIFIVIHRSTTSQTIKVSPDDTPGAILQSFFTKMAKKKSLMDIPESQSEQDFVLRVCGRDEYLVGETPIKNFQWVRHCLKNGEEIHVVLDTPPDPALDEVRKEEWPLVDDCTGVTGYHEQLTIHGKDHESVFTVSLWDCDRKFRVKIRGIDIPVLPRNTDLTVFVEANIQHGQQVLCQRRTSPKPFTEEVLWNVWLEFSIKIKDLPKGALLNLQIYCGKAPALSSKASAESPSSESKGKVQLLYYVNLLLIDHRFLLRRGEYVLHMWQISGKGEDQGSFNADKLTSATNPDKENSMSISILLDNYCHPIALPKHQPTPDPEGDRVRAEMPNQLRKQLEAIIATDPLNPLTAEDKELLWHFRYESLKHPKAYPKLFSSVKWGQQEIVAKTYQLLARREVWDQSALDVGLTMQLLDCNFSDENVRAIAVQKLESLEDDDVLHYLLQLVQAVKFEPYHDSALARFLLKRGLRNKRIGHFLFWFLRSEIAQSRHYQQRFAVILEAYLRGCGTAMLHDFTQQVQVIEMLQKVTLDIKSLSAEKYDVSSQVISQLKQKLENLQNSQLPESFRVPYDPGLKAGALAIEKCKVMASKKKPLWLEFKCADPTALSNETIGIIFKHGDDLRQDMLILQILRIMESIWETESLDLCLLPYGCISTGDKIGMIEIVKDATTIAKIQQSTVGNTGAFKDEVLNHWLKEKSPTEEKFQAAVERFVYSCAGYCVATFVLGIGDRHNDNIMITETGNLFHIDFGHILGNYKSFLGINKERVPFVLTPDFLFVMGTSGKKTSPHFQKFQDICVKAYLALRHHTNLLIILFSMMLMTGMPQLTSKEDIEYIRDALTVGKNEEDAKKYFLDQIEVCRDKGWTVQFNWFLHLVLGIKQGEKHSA
PI3Kδ (p110δ/p85α) Recombinant Human Protein, sequence (O00329 whole entry): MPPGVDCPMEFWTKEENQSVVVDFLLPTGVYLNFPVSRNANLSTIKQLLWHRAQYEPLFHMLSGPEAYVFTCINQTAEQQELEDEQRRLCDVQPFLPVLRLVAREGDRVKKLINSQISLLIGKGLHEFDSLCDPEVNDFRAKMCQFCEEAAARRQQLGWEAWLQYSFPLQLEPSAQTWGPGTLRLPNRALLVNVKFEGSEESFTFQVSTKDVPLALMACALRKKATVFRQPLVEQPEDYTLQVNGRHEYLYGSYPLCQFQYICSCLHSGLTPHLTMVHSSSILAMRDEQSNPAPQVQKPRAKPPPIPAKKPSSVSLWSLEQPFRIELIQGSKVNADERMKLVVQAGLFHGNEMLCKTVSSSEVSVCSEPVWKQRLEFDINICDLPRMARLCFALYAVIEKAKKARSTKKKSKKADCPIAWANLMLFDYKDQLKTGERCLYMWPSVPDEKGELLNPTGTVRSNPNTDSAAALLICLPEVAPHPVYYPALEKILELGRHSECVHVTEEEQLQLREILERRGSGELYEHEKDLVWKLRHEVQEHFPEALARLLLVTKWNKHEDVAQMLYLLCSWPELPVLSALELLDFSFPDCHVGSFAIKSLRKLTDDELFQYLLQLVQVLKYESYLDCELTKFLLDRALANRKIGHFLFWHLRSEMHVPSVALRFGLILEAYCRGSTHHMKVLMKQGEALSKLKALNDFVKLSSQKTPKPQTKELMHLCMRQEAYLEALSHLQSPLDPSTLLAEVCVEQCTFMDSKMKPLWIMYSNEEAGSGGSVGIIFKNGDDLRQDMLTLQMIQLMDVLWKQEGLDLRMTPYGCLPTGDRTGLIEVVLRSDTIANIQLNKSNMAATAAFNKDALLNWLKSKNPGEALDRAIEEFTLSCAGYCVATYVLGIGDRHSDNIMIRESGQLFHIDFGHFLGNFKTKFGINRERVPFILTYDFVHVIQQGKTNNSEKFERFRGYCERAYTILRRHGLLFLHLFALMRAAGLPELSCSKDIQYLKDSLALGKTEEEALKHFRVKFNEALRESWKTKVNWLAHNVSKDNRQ
PI3Kδ (p110δ/p85α) Recombinant Human Protein, sequence (P27986 whole entry partner): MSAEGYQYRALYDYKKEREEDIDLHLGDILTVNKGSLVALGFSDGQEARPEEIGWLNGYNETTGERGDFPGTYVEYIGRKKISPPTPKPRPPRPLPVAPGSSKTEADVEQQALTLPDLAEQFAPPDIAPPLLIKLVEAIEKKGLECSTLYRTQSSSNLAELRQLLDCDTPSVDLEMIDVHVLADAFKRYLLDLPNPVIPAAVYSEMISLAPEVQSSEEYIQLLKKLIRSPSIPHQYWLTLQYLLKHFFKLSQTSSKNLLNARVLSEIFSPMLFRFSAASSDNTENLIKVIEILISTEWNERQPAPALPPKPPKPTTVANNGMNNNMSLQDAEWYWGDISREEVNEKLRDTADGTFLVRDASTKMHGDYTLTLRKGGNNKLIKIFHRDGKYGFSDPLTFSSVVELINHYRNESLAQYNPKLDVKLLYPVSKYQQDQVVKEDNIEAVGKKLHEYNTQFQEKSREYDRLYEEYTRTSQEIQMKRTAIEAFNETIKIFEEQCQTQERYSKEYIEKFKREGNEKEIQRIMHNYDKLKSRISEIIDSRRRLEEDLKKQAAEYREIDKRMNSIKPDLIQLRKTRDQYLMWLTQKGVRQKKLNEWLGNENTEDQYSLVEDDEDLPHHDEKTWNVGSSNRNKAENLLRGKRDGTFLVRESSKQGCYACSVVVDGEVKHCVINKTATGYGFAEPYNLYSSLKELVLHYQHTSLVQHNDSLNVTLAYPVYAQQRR

Take `CCS(=O)(=O)n1ncc2ccc(-c3ccc4nc(-c5nc6ccccc6[nH]5)oc4c3)cc21` [Example 52, 6-[1-(Ethylsulfonyl)-1H-indazol-6-yl]-2-(1H-benzimidazol-2-yl)-1,3-benzoxazole]: the IC50 in assay [1] and in assay [2] was less than 0.25 µM each time.

Regarding `CCn1cc2ccc(-c3ccc4nc(-c5nc6ccccc6[nH]5)oc4c3)cc2n1` [Example 53, 2-(1H-benzimidazol-2-yl)-6-(2-ethyl-2H-indazol-6-yl)-1,3-benzoxazole bis(trifluoroacetate)], the values for the IC50 in assay [1] and in assay [2] were less than 0.25 µM and not below 5 µM, respectively.

As for `CCn1ncc2ccc(-c3ccc4nc(-c5nc6ccccc6[nH]5)oc4c3)cc21` [Example 54, 2-(1H-benzimidazol-2-yl)-6-(1-ethyl-1H-indazol-6-yl)-1,3-benzoxazole bis(trifluoroacetate)], the figures for the IC50 in assay [1] and in assay [2] were less than 0.25 µM and not below 5 µM, respectively.

On to `c1ccc(CN2CCN(c3ccc4nc(-c5nc6ccccc6[nH]5)oc4c3)CC2)cc1` [Example 55, 2-(1H-Benzimidazol-2-yl)-6-(4-benzylpiperazin-1-yl)-1,3-benzoxazole tris(trifluoroacetate)], for which the figures for the IC50 in assay [1] and in assay [2] were less than 5 µM and not below 5 µM, respectively.

As for `Nc1ncc(-c2ccc3nc(-c4nc5ccccc5[nH]4)oc3c2)cc1C(F)(F)F` [Example 56, 5-[2-(1H-Benzimidazol-2-yl)-1,3-benzoxazol-6-yl]-3-(trifluoromethyl)pyridin-2-amine bis(trifluoroacetate)], the IC50 in assay [1] is less than 0.25 µM; in assay [2], not below 5 µM.

In the case of `CCn1ncc2ncc(-c3ccc4nc(-c5nc6ccccc6[nH]5)oc4c3)cc21` [Example 57, 6-[2-(1H-Benzimidazol-2-yl)-1,3-benzoxazol-6-yl]-1-ethyl-1H-pyrazolo[4,3-b]pyridine tris(trifluoroacetate)], the IC50 in assay [1] was less than 0.25 µM; in assay [2], less than 1 µM.

As to `O=S(=O)(c1cncc(-c2ccc3nc(-c4nc5ccccc5[nH]4)oc3c2)c1)N1CCC(O)C1` (stereo not shown) [Example 58, 1-({5-[2-(1H-Benzimidazol-2-yl)-1,3-benzoxazol-6-yl]pyridin-3-yl}sulfonyl)pyrrolidin-3-ol bis(trifluoroacetate)], the IC50 was less than 0.25 µM in assay [1] and less than 1 µM in assay [2].

`CCNS(=O)(=O)c1cncc(-c2ccc3nc(-c4nc5ccccc5[nH]4)oc3c2)c1` [Example 59, 5-[2-(1H-Benzimidazol-2-yl)-1,3-benzoxazol-6-yl]-N-ethylpyridine-3-sulfonamide bis(trifluoroacetate)]: the results for the IC50 in assay [1] and in assay [2] were less than 0.25 µM and not below 5 µM, respectively.

Regarding `CCS(=O)(=O)Nc1cc(-c2ccc3nc(-c4nc5ccccc5[nH]4)oc3c2)ccc1F` [Example 60, N-{5-[2-(1H-Benzimidazol-2-yl)-1,3-benzoxazol-6-yl]-2-fluorophenyl}ethanesulfonamide], the IC50 is less than 0.25 µM in assay [1] and not below 5 µM in assay [2].

For the molecule `OC(c1cncc(-c2ccc3nc(-c4ncc[nH]4)oc3c2)c1)C(F)(F)F` (stereo not shown) [Example 61, 1-(5-(2-(1H-Imidazol-2-yl)benzo[d]oxazol-6-yl)pyridin-3-yl)-2,2,2-trifluoroethanol bis(trifluoroacetate)], the IC50 in assay [1] and in assay [2] was less than 0.25 µM throughout.

Regarding `Cc1nc(-c2nc3ccc(-c4cncc(S(C)(=O)=O)c4)cc3o2)[nH]c1C` [Example 62, 2-(4,5-Dimethyl-1H-imidazol-2-yl)-6-(5-(methylsulfonyl)pyridin-3-yl)benzo[d]oxazole bis(trifluoroacetate)], the IC50 in assay [1] is less than 1 µM; in assay [2], less than 5 µM.

Consider `CCS(=O)(=O)Nc1cncc(-c2ccc3nc(-c4nc(C)c(C)[nH]4)oc3c2)c1` [Example 63, N-(5-(2-(4,5-Dimethyl-1H-imidazol-2-yl)benzo[d]oxazol-6-yl)pyridin-3-yl)ethanesulfonamide bis(trifluoroacetate)], for which the figures for the IC50 in assay [1] and in assay [2] were less than 0.25 µM and less than 1 µM, respectively.

With `CCCc1nc(-c2nc3ccc(-c4cncc(NS(=O)(=O)CC)c4)cc3o2)[nH]c1C` [Example 64, N-(5-(2-(5-Methyl-4-propyl-1H-imidazol-2-yl)benzo[d]oxazol-6-yl)pyridin-3-yl)ethanesulfonamide bis(trifluoroacetate)], the IC50 in assay [1] and in assay [2] was less than 0.25 µM throughout.

Turning to `CCS(=O)(=O)Nc1cc(-c2ccc3nc(-c4nc(C)c(C)[nH]4)oc3c2)cnc1OC` [Example 65, N-(5-(2-(4,5-Dimethyl-1H-imidazol-2-yl)benzo[d]oxazol-6-yl)-2-methoxypyridin-3-yl)ethanesulfonamide bis(trifluoroacetate)], the IC50 in assay [1] and in assay [2] was less than 0.25 µM in each case.

For `CCS(=O)(=O)Nc1cc(-c2ccc3nc(-c4nc5c([nH]4)CCCC5)oc3c2)cnc1OC` [Example 66, N-(2-Methoxy-5-(2-(4,5,6,7-tetrahydro-1H-benzo[d]imidazol-2-yl)benzo[d]oxazol-6-yl)pyridin-3-yl)ethanesulfonamide], the IC50 in assay [1] and in assay [2] was less than 0.25 µM in each case.

Turning to `Cc1nc(-c2nc3ccc(-c4cncc(C(O)C(F)(F)F)c4)cc3o2)[nH]c1C` (stereo not shown) [Example 67, 1-(5-(2-(4,5-Dimethyl-1H-imidazol-2-yl)benzo[d]oxazol-6-yl)pyridin-3-yl)-2,2,2-trifluoroethanol bis(trifluoroacetate)], the IC50 in assay [1] and in assay [2] was less than 0.25 µM in each case.

For the molecule `OC(c1cncc(-c2ccc3nc(-c4nc5c([nH]4)CCCC5)oc3c2)c1)C(F)(F)F` (stereo not shown) [Example 68, 2,2,2-Trifluoro-1-(5-(2-(4,5,6,7-tetrahydro-1H-benzo[d]imidazol-2-yl)benzo[d]oxazol-6-yl)pyridin-3-yl)ethanol], the IC50 in assay [1] and in assay [2] was less than 0.25 µM throughout.

Consider `COc1cc(-c2ccc3nc(-c4nc5ccccc5[nH]4)oc3c2)cnc1F` [Example 69, 2-(1H-Benzo[d]imidazol-2-yl)-6-(6-fluoro-5-methoxypyridin-3-yl)benzo[d]oxazole bis(trifluoroacetate)], for which the IC50 was less than 0.25 µM in assay [1] and not below 5 µM in assay [2].

In the case of `Fc1ncc(-c2ccc3nc(-c4nc5ccccc5[nH]4)oc3c2)cn1` [Example 70, 2-(1H-Benzo[d]imidazol-2-yl)-6-(2-fluoro-pyrimidin-5-yl)benzo[d] oxazole bis(trifluoroacetate)], the IC50 in assay [1] was less than 1 µM; in assay [2], not below 5 µM.

For `O=C(O)Cc1cncc(-c2ccc3nc(-c4nc5ccccc5[nH]4)oc3c2)c1` [Example 71, 2-(5-(2-(1H-Benzo [d]imidazol-2-yl)benzo[d]oxazol-6-yl)pyridin-3-yl)acetic acid], the IC50 is less than 1 µM in assay [1] and less than 5 µM in assay [2].

With `CP(C)(=O)c1cncc(-c2ccc3nc(-c4nc5ccccc5[nH]4)oc3c2)c1` [Example 72, 2-(1H-Benzo[d]imidazol-2-yl)-6-(5-(dimethyl-phosphoryl)pyridin-3-yl)benzo[d]oxazole bis(trifluoroacetate)], the IC50 is less than 0.25 µM in assay [1] and less than 5 µM in assay [2].

In the case of `CCS(=O)(=O)N(C)c1cncc(-c2ccc3nc(-c4nc5ccccc5[nH]4)oc3c2)c1` [Example 73, N-(5-(2-(1H-Benzo [d]imidazol-2-yl)benzo [d]oxazol-6-yl)pyridin-3-yl)-N-methylethanesulfonamide bis(trifluoroacetate)], the IC50 was less than 0.25 µM in assay [1] and less than 5 µM in assay [2].

Turning to `OC(c1cncc(-c2ccc3nc(-c4nc5ccccc5[nH]4)oc3c2)c1)C(F)(F)F` (stereo not shown) [Example 74, 1-(5-(2-(1H-Benzo [d]imidazol-2-yl)benzo [d]oxazol-6-yl)pyridin-3-yl)-2,2,2-trifluoroethanol bis(trifluoroacetate)], the IC50 in assay [1] and in assay [2] was less than 0.25 µM in each case.
